Source: patent US7371779B2, “Synergistic compositions of N-acylhomoserine lactones and 4-quinolones” (The Secretary of State for Defense Science and Technology, priority 2001, dated 2008)
Entries after “also recorded” stand apart in the source; their conditions may differ.

Legend:
hPBMC = test: Cell proliferation of hPBMC stimulated with anti-CD3 and anti-CD28; assay type: cell-based, human; settings: four donors; for inhibition of proliferation of hPBMC stimulated via CD3 and CD28, in words: 0.78125 to 100 μM
Procedure: Anti-CD3 and anti-CD28 antibodies were used to assess the effect of quorum sensing signal molecules (PQS, OdDHL and OHHL) on T-cell proliferation and IL-2 secretion. Proliferation was assessed by the incorporation of [^3H]-thymidine into the DNA of PBMC and the release of cytokines in the culture supernatants was determined by ‘sandwich’ ELISA. Blood specimens were obtained with consent from four healthy human volunteers (aged between 20 and 50 years). Human PBMC were isolated from heparinised whole blood by buoyant density centrifugation over Histopaque 1077 (Sigma, Poole, UK) at 600 g for 20 minutes. PBMC harvested from the ‘buffy’ layers were washed twice with RPMI 1640 medium and resuspended in complete cell culture medium (CTCM) consisting of RPMI 1640 medium with 5% FCS, 2 mM L-glutamine, and 5×10^−5 M 2-mercaptoethanol. The quorum sensing molecules, of which stock solutions of 0.1 M were soluble in DMSO, were initially diluted into CTCM and then tested in triplicate wells at concentrations ranging from 0.78125 to 100 μM in 200 μl of CTCM, containing 100,000 hPBMC which were challenged with 100 ng/ml of mouse anti-human CD3 monoclonal antibody (clone UCHT1; BD Pharmingen, UK) and 5 μg/ml of mouse anti-human CD28 monoclonal antibody (clone CD28.2; BD Pharmingen, UK). hPBMC were incubated for 24 h at 37° C. in 5% CO2-air and 50 μl of culture supernatants were removed for the determination of IL-2 (see IV.II below). The cells were returned for a further 24 h culture, followed by pulsing with 0.25 μCi [^3H]-thymidine (Amersham) in 10 μl volume made up in RPMI 1640 medium. After a further incubation of 24 h, cells were harvested onto 96-well filter plates (Unifilter Filtermate Harvester™, Packard Bioscience Ltd, UK). Following the addition of 25 μl of scintillant (MicroScint-O™; Packard Bioscience Ltd. UK) to each well in the filter plates, the radioactivity in the filters was measured with a β-scintillation counter (TopCount™, Packard Bioscience Ltd, UK) according to manufacturer's specifications. […]

IL-2 [1] = test: IL-2 production from anti-CD3 and anti-CD28 stimulated hPBMC (sandwich ELISA); assay type: cell-based, human; settings: four donors, 24 h supernatants
Procedure: Anti-CD3 and anti-CD28 antibodies were used to assess the effect of quorum sensing signal molecules (PQS, OdDHL and OHHL) on T-cell proliferation and IL-2 secretion. Proliferation was assessed by the incorporation of [^3H]-thymidine into the DNA of PBMC and the release of cytokines in the culture supernatants was determined by ‘sandwich’ ELISA. Blood specimens were obtained with consent from four healthy human volunteers (aged between 20 and 50 years). Human PBMC were isolated from heparinised whole blood by buoyant density centrifugation over Histopaque 1077 (Sigma, Poole, UK) at 600 g for 20 minutes. […] Following the addition of 25 μl of scintillant (MicroScint-O™; Packard Bioscience Ltd. UK) to each well in the filter plates, the radioactivity in the filters was measured with a β-scintillation counter (TopCount™, Packard Bioscience Ltd, UK) according to manufacturer's specifications. […]
When T cells in hPBMC are challenged with anti-CD3 and anti-CD28 antibodies, the cytokine IL-2 is released into the culture supernatants. The levels of cytokine produced in the culture supernatants after 24 h were determined in a ‘sandwich’ ELISA. […] Following four washes, the bound biotinylated antibody was detected with 50 μl of a 1:1,000 dilution of streptavidin-peroxidase (BD Pharmingen, UK). […]

TNF-alpha = TNF-alpha production from LPS-stimulated human PBMC (sandwich ELISA); assay type: cell-based; settings: for inhibition of LPS induced TNF-α production by human PBMC, in words: LPS-stimulated human PBMC
Procedure: Bacterial lipopolysaccharide (LPS) stimulates the production of a variety of cytokines, including TNF-alpha, from human PBMC; these cytokines in turn influence the development of T cells, supporting a T helper 1 conducive milieu. Human PBMC prepared from whole blood by buoyant density centrifugation were resuspended in CTCM. […] Following incubation for 24 h at 37° C. in 5% CO2-air, the cell culture supernatants were collected and tested for TNF-alpha levels by ‘sandwich’ ELISA. Briefly, 96-well Nunc MaxiSorp (Life Technologies, Paisley, UK) plates were coated with 50 μl of a 2 μg/ml solution of mouse anti-human TNF-alpha monoclonal antibody (Pharmingen, UK) in 0.05 M carbonate/bicarbonate buffer, pH 9.6 overnight at 4° C. After washing the plates three times with PBS-Tween, which contained phosphate buffered saline (PBS) with 0.5% (vol/vol) Tween 20 (Sigma, Poole, UK), the plates were blocked with 1% (wt/vol) bovine serum albumin (BSA) (Sigma, Poole, UK) at room temperature for 2 h. Following three washes with PBS-Tween, 50 μl of cell culture supernatants were added and incubated overnight at 4° C.; standard human TNF-alpha (Pharmingen, UK) ranging from 2000 to 31.25 pg/ml were included for each plate. After four washes with PBS-Tween, 50 μl of a second antibody, biotinylated mouse anti-human TNF-alpha monoclonal antibody (Pharmingen, UK) was added at 0.5 μg/1 ml diluted in 1% BSA in PBS-Tween and incubated at room temperature for 1 h. Following four washes, the bound biotinylated antibody was detected with 50 μl of a 1:1,000 dilution of Streptavidin-peroxidase (Pharmingen, UK). At the end of an hour incubation at room temperature, the plates were thoroughly washed six times with PBS-Tween and the assay was developed by the addition of 100 μl of 0.1 mg/ml of tetramethyl benzidine subtrate (Sigma, Poole, UK) in 0.1 M sodium acetate buffer, pH 6 containing 0.03% H2O2. The enzyme reaction was stopped with 50 μl of 2.5 M H2SO4 after an incubation of 10 minutes at room temperature and the development was read at 450 nm with a spectrophotometric 96-well plate reader (Dynex).

IL-2 [2] = test: Release of IL-2 from BALB/c splenocytes stimulated with ConA; settings: ConA 1 μg/ml

SMILES | inhibition of proliferation of hPBMC stimulated via CD3 and CD28, in words (hPBMC; listed as OdDHL) | inhibition of release of IL-2 from hPBMC stimulated via CD3 and CD28, in words (IL-2 [1]; listed as OdDHL) | IC50 (TNF-alpha; Experiment III, read-out: IC50 in inhibition of LPS induced production of TNF-α by human PBMC) [µM] | inhibition of LPS induced TNF-α production by human PBMC, in words (TNF-alpha; listed as OdDHL) | inhibition of release of IL-2 from BALB/c splenocytes, in words (IL-2 [2]) | potency relative to OdDHL in inhibition of CD3/CD28 stimulated hPBMC proliferation (hPBMC) | inhibition of proliferation of hPBMC stimulated via CD3 and CD28, in words (hPBMC) | inhibition of release of IL-2 from hPBMC stimulated via CD3 and CD28, in words (IL-2 [1]) | inhibition of LPS induced TNF-α production by human PBMC, in words (TNF-alpha)
CCCCCCCCCC(=O)CC(=O)N[C@H]1CCOC1=O [Example 6] | inhibited, in a dose dependent manner; also recorded: inhibit the proliferation of stimulated hPBMC | inhibited in a dose dependent manner the release of IL-2; also recorded: inhibits the release of IL-2 | 17 | inhibited the secretion | inhibit the release of IL-2 |  |  |  | 
CCCCCCCc1[nH]c2ccccc2c(=O)c1O [PQS] |  |  |  |  | inhibit the release of IL-2 | consistently more potent than OdDHL | inhibited, in a dose dependent manner; also recorded: inhibit the proliferation of stimulated hPBMC | but not PQS, inhibits the release of IL-2 | not inhibited
